Measured values: the supplement of paper PMC5908809

Legend:
NK-92 (IL-2 2.5 ng/mL) [1] = assay: drug sensitivity score (DSS) (DSS units); higher = more sensitive; extreme values may be limits of the assay; details: 72 h
[2] = system: normal primary NK cells, pool 1 (3 donors), resting (IL-2 0 ng/mL); assay: as above; details: 72 h
IMC-1 (IL-2 20 ng/mL) [3] = assay: as above; details: 72 h
KHYG-1 (IL-2 2.5 ng/mL) [4] = assay: as above; details: 72 h
[5] = system: normal primary NK cells, pool 3 (3 donors) (IL-2 2.5 ng/mL); assay: as above; details: 72 h
DERL-7 (IL-2 2.5 ng/mL) [6] = assay: as above; details: 72 h
KAI3 (IL-2 2.5 ng/mL) [7] = assay: as above; details: 72 h
NK-YS (IL-2 2.5 ng/mL) [8] = assay: as above; details: 72 h
[9] = system: normal primary NK cells, pool 2 (3 donors) (IL-2 2.5 ng/mL); assay: as above; details: 72 h
NKL (IL-2 2.5 ng/mL) [10] = assay: as above; details: 72 h
YT (IL-2 2.5 ng/mL) [11] = assay: as above; details: 72 h
[12] = system: normal primary NK cells, pool 1 (3 donors) (IL-2 2.5 ng/mL); assay: as above; details: 72 h
SNK-6 (IL-2 2.5 ng/mL) [13] = assay: as above; details: 72 h
[14] = system: normal NK cells expanded with K562-aAPC; assay: as above; details: 72 h; IL-2 2.5 ng/mL
Protocol: (§1)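 Drug sensitivity and resistance testing on K562-aAPC-expanded normal NK cells: 5 concentrations (10-fold steps over a 10,000-fold range), 72 h at 37 °C, viability by CellTiter-Glo normalised to DMSO and benzethonium chloride controls; DSS from the fitted curve.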

NK-92 (IL-2 2.5 ng/mL) [15] = assay: percent inhibition of viability; higher = more inhibition; details: 72 h
[16] = system: normal primary NK cells, pool 1 (3 donors), resting (IL-2 0 ng/mL); assay: as above; details: 72 h
IMC-1 (IL-2 20 ng/mL) [17] = assay: as above; details: 72 h
KHYG-1 (IL-2 2.5 ng/mL) [18] = assay: as above; details: 72 h
[19] = system: normal primary NK cells, pool 3 (3 donors) (IL-2 2.5 ng/mL); assay: as above; details: 72 h
DERL-7 (IL-2 2.5 ng/mL) [20] = assay: as above; details: 72 h
KAI3 (IL-2 2.5 ng/mL) [21] = assay: as above; details: 72 h
NK-YS (IL-2 2.5 ng/mL) [22] = assay: as above; details: 72 h
[23] = system: normal primary NK cells, pool 2 (3 donors) (IL-2 2.5 ng/mL); assay: as above; details: 72 h
NKL (IL-2 2.5 ng/mL) [24] = assay: as above; details: 72 h
YT (IL-2 2.5 ng/mL) [25] = assay: as above; details: 72 h
[26] = system: normal primary NK cells, pool 1 (3 donors) (IL-2 2.5 ng/mL); assay: as above; details: 72 h
SNK-6 (IL-2 2.5 ng/mL) [27] = assay: as above; details: 72 h
[28] = system: normal NK cells expanded with K562-aAPC; assay: as above; details: 72 h, IL-2 2.5 ng/mL
Protocol: as §1

Cc1csc(-c2nnc(Nc3ccc(Oc4ncccc4-c4ccnc(N)n4)cc3)c3ccccc23)c1 [AMG-900] (max concentration tested 1000 nM)
Details | drug sensitivity score
DERL-7 (IL-2 2.5 ng/mL) [6] | 17.1
IMC-1 (IL-2 20 ng/mL) [3] | 6.18
KAI3 (IL-2 2.5 ng/mL) [7] | 5.44
KHYG-1 (IL-2 2.5 ng/mL) [4] | 12.6
NK-92 (IL-2 2.5 ng/mL) [1] | 6.74
NK-YS (IL-2 2.5 ng/mL) [8] | 20.2
NKL (IL-2 2.5 ng/mL) [10] | 0
SNK-6 (IL-2 2.5 ng/mL) [13] | 23
YT (IL-2 2.5 ng/mL) [11] | 3.19
[2] | 0.61
[5] | 0
[9] | 0
[12] | 0
[14] | 6.8

percent inhibition of viability [%]
Details | 0.1 nM | 1 nM | 10 nM | 100 nM | 1000 nM
DERL-7 (IL-2 2.5 ng/mL) [20] | -3.26 | -1.85 | 31 | 70.8 | 53.9
IMC-1 (IL-2 20 ng/mL) [17] | -5.67 | -6.98 | 18.2 | 21.9 | 63.9
KAI3 (IL-2 2.5 ng/mL) [21] | -5.87 | -5.96 | 19.4 | 20.4 | 43.4
KHYG-1 (IL-2 2.5 ng/mL) [18] | -2.26 | -0.47 | 44.5 | 33.3 | 59.8
NK-92 (IL-2 2.5 ng/mL) [15] | -9.63 | -11.2 | 17.6 | 27.6 | 52.6
NK-YS (IL-2 2.5 ng/mL) [22] | -5.77 | -3.39 | 59.6 | 59.6 | 71.8
NKL (IL-2 2.5 ng/mL) [24] | -16.8 | -17.8 | -16.6 | -9.7 | -5.52
SNK-6 (IL-2 2.5 ng/mL) [27] | 15.5 | 7.4 | 68.4 | 57.2 | 72.8
YT (IL-2 2.5 ng/mL) [25] | -0.32 | -0.28 | 13 | 16 | 24.9
[16] | -1.37 | -7.12 | 5.07 | 10.8 | 11.6
[19] | -7.42 | 4.77 | -7.75 | -0.31 | -0.94
[23] | -8.07 | -6.23 | -6.7 | -3.83 | -5.92
[26] | -4.05 | -2.86 | -4.93 | -3.83 | -3.7
[28] | -2.04 | -5.9 | -2.98 | 39.7 | 33

CC(C)[C@H](C(=O)Nc1ccc(C(=O)NO)cc1)c1ccccc1 [AR-42] (max concentration tested 10000 nM)
Details | drug sensitivity score
DERL-7 (IL-2 2.5 ng/mL) [6] | 17.7
IMC-1 (IL-2 20 ng/mL) [3] | 18.3
KAI3 (IL-2 2.5 ng/mL) [7] | 24.6
KHYG-1 (IL-2 2.5 ng/mL) [4] | 19.4
NK-92 (IL-2 2.5 ng/mL) [1] | 22.9
NK-YS (IL-2 2.5 ng/mL) [8] | 14.8
NKL (IL-2 2.5 ng/mL) [10] | 18.9
SNK-6 (IL-2 2.5 ng/mL) [13] | 18.9
YT (IL-2 2.5 ng/mL) [11] | 14.9
[2] | 15.9
[5] | 15
[9] | 15.4
[12] | 16.6
[14] | 17.3

percent inhibition of viability [%]
Details | 1 nM | 10 nM | 100 nM | 1000 nM | 10000 nM
DERL-7 (IL-2 2.5 ng/mL) [20] | -0.01 | 2.48 | -2.69 | 100 | 101
IMC-1 (IL-2 20 ng/mL) [17] | -2.38 | -3.46 | 10.1 | 92.8 | 101
KAI3 (IL-2 2.5 ng/mL) [21] | -2.48 | 10.7 | 56.8 | 93.1 | 109
KHYG-1 (IL-2 2.5 ng/mL) [18] | -2.7 | -4.06 | 8.15 | 104 | 109
NK-92 (IL-2 2.5 ng/mL) [15] | -16.8 | -2.43 | 34.6 | 104 | 109
NK-YS (IL-2 2.5 ng/mL) [22] | -6.36 | -5.82 | 4.66 | 76.3 | 108
NKL (IL-2 2.5 ng/mL) [24] | -5.13 | -4.69 | 35.2 | 77.5 | 107
SNK-6 (IL-2 2.5 ng/mL) [27] | -0.12 | 1.49 | 22.2 | 88.3 | 101
YT (IL-2 2.5 ng/mL) [25] | -2.57 | 0.39 | 5.64 | 75.6 | 108
[16] | -9.37 | -0.47 | 13.4 | 77.4 | 88.7
[19] | -3.19 | -1.6 | -0.03 | 82 | 98.4
[23] | -13.5 | -9.96 | 3.39 | 82.8 | 94.9
[26] | 2.55 | 6.41 | 6.74 | 85.7 | 97.5
[28] | 5.85 | 0.8 | 9.74 | 87.9 | 101
